Data from paper PMC7008171 (Frontiers in Pharmacology, 2020).
Values joined by “and” are separate entries in the source; they are usually repeats but may differ in a detail not shown here. Identical values can stand only once. Marks after values point to notes of the source that are not given here.

What was measured:
[1] = parameters: method as in Mannens et al., 1994; conditions: dog plasma; ref Mannens et al., 1994; cited from earlier work
in vivo = conditions: both, Beagle, dog, plasma, 1 mg
Description: (§1) The dogs were kept still for 2 min. A dose of 1 mg/body was administrated.
(§2) Four healthy Beagle dogs (male:female, 1:1) weighting 9.04 ± 1.88 kg (Certificate No. 20150005001131), purchased from Shanghai Jambo Biological Technology Co., Ltd (Shanghai, China), were used in this study. The study protocol was reviewed and approved by the Animal Management and Ethic Committee of the China State Institute of Pharmaceutical Industry. Dogs were housed individually in stainless steel cages. Tap water was given ad-libitum and food was provided once daily. Dogs were fasted for 12 h before drug administration. Blank blood samples were withdrawn prior to the administration of the drugs. Subsequently, blood samples were taken from forelimb vein at 0.167, 0.333, 0.5, 0.75, 1.0, 1.5, 2.0, 3.0, 4.0, 6.0, 8.0, 12, 24, and 32 h into heparin sodium-containing centrifuge tubes which were then centrifuged for 5 min at 3,000 rpm. The supernatant was collected and stored at -20 °C in the refrigerator until further analysis.
(§3) The main pharmacokinetic parameters of maximum plasma concentration (Cmax), peak time (Tmax), area under the concentration-time curve from 0 h to the time of last measurable concentration (AUC0-t), and AUC from 0 to infinity (AUC0-∞), mean residue time (MRT), apparent volume of distribution (Vd), elimination half-life (t1/2), and in vivo clearance (CL) were calculated by non-compartmental approach using the software of DAS 2.0 ([Cheng et al., 2016]).
(§4) Calibration curves were constructed in the concentration range of 0.2–200 ng/ml with a lower limit of quantification (LLOQ) of 0.2 ng/ml. […] The HPLC system (Shimadzu Co. Ltd, Kyoto, Japan) equipped with a triple quadruple mass spectrometer (Shimadzu Co. Ltd, Kyoto, Japan) operating with ESI in the positive mode was used for the quantification of the analytes. Mobile phases consisted of methanol and water (35:65, v/v), both containing 0.05% formic acid and 5 mM ammonium formate. The flow rate was set at 0.3 ml/min. Ten μl of the aliquot was injected into the Inspire C18 column (2.1 mm×50 mm, 3 μm, Dikma Technologies Inc, Beijing, China) at a column oven of 40 °C. […] Direct protein precipitation using acetonitrile was used for the extraction of analytes from dog plasma.

[2] = ref PMDA label, 2018; cited from earlier work
[3] = taken orally; ref Huang et al., 1993; de Leon et al., 2010; Shimizu et al., 2017; cited from earlier work
[4] = Pharmacokinetic study in Beagle dogs (i.v., i.g., supralingual, sublingual; crossover, single dose);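 further: Single-dose crossover across four periods with one-week washout, plasma drug levels quantified by LC-MS/MS in positive ESI mode, lower quantification limit 0.2 ng/mL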; conditions: three-compartmental fit of i.v. profile in Beagle dogs
Description: as §1, §2, §3, §4

[5] = sublingual tablets (Intermezzo), OCCAT model; ref Xia et al., 2015; cited from earlier work

For Cc1nc2n(c(=O)c1CCN1CCC(c3noc4cc(F)ccc34)CC1)CCCC2 [risperidone], the “fu (plasma unbound fraction)” value [1] is listed as 0.083 ^c, the AUC(0-inf) (in vivo) is listed as 102 ± 43.3 ng·h/mL and the AUC(0-t) (in vivo) is listed as 98.9 ± 40.9 ng·h/mL. For the same molecule, the Cmax (in vivo) was 52.6 ± 10.6 ng/mL, the MRT inf (in vivo) was 1.93 ± 0.52 h and the MRT last (in vivo) was 1.78 ± 0.41 h. The Tmax (in vivo) was 0.67 ± 0.38 h, the Vd (in vivo) was 17.8 ± 3.06 L and the clearance (in vivo) was 184 mL/min. The half-life (in vivo) was 1.21 ± 0.4 h, the AUC(0-inf) (in vivo; iv) was 179 ± 115 ng·h/mL and the AUC(0-t) (in vivo; iv) was 177 ± 113 ng·h/mL. For the same molecule, the Cmax (in vivo; iv) was 215 ± 56.4 ng/mL, the MRT inf (in vivo; iv) was 1.4 ± 0.89 h and the MRT last (in vivo; iv) was 1.3 ± 0.8 h. The Tmax (in vivo; iv) was 0.03 h, the Vd (in vivo; iv) was 12.8 L and 0.314 L/kg and the clearance (in vivo; iv) was 128 mL/min and 9.84 mL/min/kg. For the same molecule, the half-life (in vivo; iv) was 1.37 ± 0.82 h, the AUC(0-inf) (in vivo; other: supralingual) was 102 ± 57.4 ng·h/mL and the AUC(0-t) (in vivo; other: supralingual) was 97.3 ± 54.4 ng·h/mL. For the same molecule, the Cmax (in vivo; other: supralingual) was 59.4 ± 7.32 ng/mL, the MRT inf (in vivo; other: supralingual) was 1.73 ± 0.82 h and the MRT last (in vivo; other: supralingual) was 1.5 ± 0.71 h. It also gave a Tmax (in vivo; other: supralingual) of 0.62 ± 0.58 h, a Vd (in vivo; other: supralingual) of 17.2 ± 7.7 L and a clearance (in vivo; other: supralingual) of 199 mL/min. The half-life (in vivo; other: supralingual) was 1.13 ± 0.5 h, the AUC(0-inf) (in vivo; po) was 91.3 ± 48.6 ng·h/mL and the AUC(0-t) (in vivo; po) was 90 ± 48.7 ng·h/mL. The Cmax (in vivo; po) was 45.9 ± 7.6 ng/mL, the MRT inf (in vivo; po) was 1.79 ± 0.74 h and the MRT last (in vivo; po) was 1.71 ± 0.75 h. For the same molecule, the Tmax (in vivo; po) was 0.71 ± 0.53 h, the half-life (in vivo; po) was 0.92 ± 0.41 h and the “Solubility (pH 6.8)” value [2] was 0.9 ^d mg/ml. For the same molecule, the Oral bioavailability [3] was “about 70%”, the K12 [4] was 16.352 ^e h^-1 and the K13 [4] was 0.4625 ^e h^-1. The K21 [4] was 9.007 ^e h^-1, the K31 [4] was 0.4103 ^e h^-1 and the “V2 (volume of distribution of the first peripheral compartment)” value [4] was 0.5699 ^e L/kg. For the same molecule, the “V3 (volume of distribution of the second peripheral compartment)” value [4] was 0.3538 ^e L/kg.

In the case of Cc1ccc(-c2nc3ccc(C)cn3c2CC(=O)N(C)C)cc1 [zolpidem], the “Estimated absorption via the oral mucosa” value [5] is given as “about 18%”.
